Consider five molecules from patent US11248234B2, “Herbicide-resistant hydroxyphenylpyruvate dioxygenases” (BASF SE, priority 2015, dated 2022).

The term Ki denotes a dissociation constant, usually derived from enzyme kinetics or from competition with a known ligand. A low value points to higher affinity.

The target in experiment [1] is Scenedesmus HPPD (Seq ID: 2) (Tetradesmus obliquus, UniProt A0A383WMN4, N195D). The experiment in a line: In vitro HPPD activity assay. Format: biochemical. The following applies: for TI (normalized tolerance index): normalized on Arabidopsis wild-type HPPD (SEQ ID NO:42). In short, it runs like this:
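Purified mutant HPPD (0.2 units) in 150 mM phosphate pH 7.0 with ascorbate, catalase and 1 µM FeSO4 was preincubated 30 min with inhibitor (5 µM–320 pM final, 1% DMSO). Reaction ran 45 min at room temperature with 0.05 mM 4-HPP. HGA was quantified by UPLC with electrochemical detection, and IC50 came from non-linear regression, with Ki by Cheng-Prusoff.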

Experiment [2] addresses T1, Arabidopsis HPPD (Seq ID: 42) (Arabidopsis thaliana, UniProt P93836).
T1 construct: His6; made in house; host or cells: E. coli BL21 (DE3)
T1 sequence (P93836 1-445): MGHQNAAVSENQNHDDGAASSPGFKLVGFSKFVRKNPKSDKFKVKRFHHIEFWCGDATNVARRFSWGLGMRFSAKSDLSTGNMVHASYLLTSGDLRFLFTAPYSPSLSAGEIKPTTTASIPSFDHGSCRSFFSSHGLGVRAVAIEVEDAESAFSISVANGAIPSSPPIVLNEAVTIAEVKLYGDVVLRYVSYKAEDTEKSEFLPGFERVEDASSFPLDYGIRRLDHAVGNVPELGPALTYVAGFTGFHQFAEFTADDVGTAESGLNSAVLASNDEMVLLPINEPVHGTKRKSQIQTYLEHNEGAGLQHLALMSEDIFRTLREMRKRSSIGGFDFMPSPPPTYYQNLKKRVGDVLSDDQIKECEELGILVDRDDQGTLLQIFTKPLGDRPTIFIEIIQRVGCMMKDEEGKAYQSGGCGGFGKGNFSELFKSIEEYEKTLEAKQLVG
The experiment can be described thus: In vitro HPPD activity assay (homogentisic acid by HPLC). It is filed as biochemical. To be noted: benchmark enzyme; normalized on Arabidopsis wild-type HPPD. As to the method:
HPPD produces homogentisic acid and CO2 from 4-hydroxyphenylpyruvate (4-HPP) and O2. The activity assay for HPPD is based on the analysis of homogentisic acid by reversed phase HPLC.
The assay mixture can contain 150 mM potassium phosphate buffer pH 7.0, 50 mM L-ascorbic acid, 100 μM Catalase (Sigma-Aldrich), 1 μM FeSO4 and 0.2 units of purified mutated HPPD enzyme in a total volume of 505 μl. 1 unit is defined as the amount of enzyme that is required to produce 1 nmol of HGA per minute at 20° C.
After a preincubation of 30 min the reaction is started by adding 4-HPP to a final concentration of 0.05 mM. The reaction is allowed to proceed for 45 min at room temperature. The reaction is stopped by the addition of 50 μl of 4.5 M phosphoric acid. The sample is filtered using a […] pore size PVDF filtration device.
5 μl of the cleared sample is analyzed on an UPLC HSS T3 column (particle size 1.8 μm, dimensions 2.1×50 mm; Waters) by isocratic elution using 90% 20 mM NaH2PO4 pH 2.2, 10% methanol (v/v).
HGA is detected electrochemically at 750 mV (mode: DC; polarity: positive) and quantified by integrating peak areas (Empower software; Waters).
Inhibitors are dissolved in DMSO (dimethylsulfoxide) to a concentration of 0.5 mM. From this stock solution serial five-fold dilutions are prepared in DMSO, which are used in the assay. The respective inhibitor solution accounts for 1% of the assay volume. […] Activities are normalized by setting the uninhibited enzyme activity to 100%. IC50 values are calculated using non-linear regression.
Using methods which are described in the above examples or well known in the art, purified, recombinant mutated HPPD enzymes are characterized with respect to their kinetic properties and sensitivity towards HPPD inhibiting herbicides. Apparent michaelis constants (Km) and maximal reaction velocities (Vmax) are calculated by non-linear regression with the software GraphPad Prism 5 (GraphPad Software, La Jolla, USA) using a substrate inhibition model. […] Weighted means (by standard error) of Km and IC50 values are calculated from at least three independent experiments.
Field performance of the HPPD enzyme, which is used as a herbicide tolerance trait may depend not only on its lack of sensitivity towards HPPD inhibiting herbicides but also on its activity. To assess the potential performance of a herbicide tolerance trait a tolerance index (TI) is calculated using the following formula: […]
Easy comparison and ranking of each trait is enabled by normalizing tolerance indexes on Arabidopsis wild-type HPPD.

Experiment [3] deals with transgenic Arabidopsis plants (T2) SoHPPD F363I (short). The experiment can be described thus: Greenhouse spray test, injury evaluation. It is filed as in vivo, Arabidopsis thaliana. The following applies: 14 DAT. As to the method:
(§1) Non-transgenic control plants were treated in parallel and pictures taken 14 days after treatment.
(§2) For post emergence treatment, the test plants are first grown to a height of 3 to 15 cm, depending on the plant habit, and only then treated with the herbicides. For this purpose, the test plants are either sown directly and grown in the same containers, or they are first grown separately and transplanted into the test containers a few days prior to treatment.
(§3) Additionally, T1 and T2 transgenic Arabidopsis plants can be tested for improved tolerance to HPPD-inhibiting herbicides in greenhouse studies. Herbicide injury scoring is done 2-3 weeks after treatment and is rated on a scale of 0 to 100%, 0% being no injury and 100% being complete death.
(§4) Transgenic T2 Arabidopsis plants were sprayed with a range of doses from 1.56-25 g/ha of different HPPD-inhibiting herbicides and injury evaluations were taken two weeks after treatment (FIG. 4). As depicted in Table 8, control plants were severely injured by all doses of herbicides applied, with at least 58% of leaf material being damaged at the lowest application rate and 100% leaf damage at the second application rate.

In experiment [4] the test system is WT (non-transgenic control) Arabidopsis plants. The experiment in a line: Greenhouse spray test, injury evaluation. Format: in vivo, Arabidopsis thaliana. To be noted: 14 DAT. The method, then:
as §1, §2, §3, §4

For experiment [5], the system named is transgenic Arabidopsis plants (T2) SoHPPD Q317H (short). The experiment can be described thus: Greenhouse spray test, injury evaluation. It is filed as in vivo, Arabidopsis thaliana. The following applies: for Injury: 14 DAT. As to the method: as §1, §2, §3, §4

Sequence of Scenedesmus HPPD (Seq ID: 2) (A0A383WMN4 entry or part of it N195D): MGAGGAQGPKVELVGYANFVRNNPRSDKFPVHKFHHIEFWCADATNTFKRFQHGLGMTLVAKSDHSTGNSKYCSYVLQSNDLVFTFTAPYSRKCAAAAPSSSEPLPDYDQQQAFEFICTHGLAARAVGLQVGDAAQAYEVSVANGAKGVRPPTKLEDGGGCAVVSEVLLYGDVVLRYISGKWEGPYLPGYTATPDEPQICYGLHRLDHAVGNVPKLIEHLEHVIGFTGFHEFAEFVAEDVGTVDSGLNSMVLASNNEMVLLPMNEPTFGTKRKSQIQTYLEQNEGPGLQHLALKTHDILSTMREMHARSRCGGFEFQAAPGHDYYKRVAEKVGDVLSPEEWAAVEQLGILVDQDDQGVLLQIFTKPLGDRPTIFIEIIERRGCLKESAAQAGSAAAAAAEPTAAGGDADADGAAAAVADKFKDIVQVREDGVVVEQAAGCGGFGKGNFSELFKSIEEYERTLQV

As for `CCSc1ccc(Cl)c(C(=O)Nc2nnnn2C)c1Cl` [Inhibitor 8, 2,6-dichloro-3-ethylsulfanyl-N-(1-methyltetrazol-5-yl)benzamide], the “TI (normalized tolerance index)” value worked out at 0.1 in experiment [1] and 1.0 in experiment [2].

Regarding `CCS(=O)(=O)c1cc(C(F)(F)F)ccc1C1=C(O)c2ncccc2C(C)(C)S1(=O)=O` [Inhibitor 4, 7-[2-ethylsulfonyl-4-(trifluoromethyl)phenyl]-5,5-dimethyl-6,6-dioxo-thiopyrano[4,3-b]pyridin-8-ol], the entries for the “TI (normalized tolerance index)” value in experiment [1] and in experiment [2] were 0.1 and 1.0, respectively.

For `CS(=O)(=O)c1ccc(C(=O)C2C(=O)CCCC2=O)c([N+](=O)[O-])c1` [Inhibitor 2, 2-(4-methylsulfonyl-2-nitro-benzoyl)cyclohexane-1,3-dione], the Injury in experiment [3] (Event B, 1.56 g ai/ha) was 0%; in experiment [3] (Event B, 6.25 g ai/ha), 0%; in experiment [3] (Event B, 25 g ai/ha), 3%; in experiment [3] (Event C, 1.56 g ai/ha), 5%; in experiment [3] (Event C, 6.25 g ai/ha) it was 0%; in experiment [3] (Event C, 25 g ai/ha) it was 0%. In addition, the Injury is listed as 58% in experiment [4] (1.56 g ai/ha); 100% in experiment [4] (6.25 g ai/ha); 100% in experiment [4] (25 g ai/ha); 0% in experiment [5] (Event B, 1.56 g ai/ha); 0% in experiment [5] (Event B, 6.25 g ai/ha); 33% in experiment [5] (Event B, 25 g ai/ha). Also, the Injury in experiment [5] (Event C, 1.56 g ai/ha) was determined as 0%; in experiment [5] (Event C, 6.25 g ai/ha), 3%; in experiment [5] (Event C, 25 g ai/ha) it was 35%. The “average damage (leaf injury)” value in experiment [5] (25 g ai/ha, average of events) was determined as 34%. The “TI (normalized tolerance index)” value in experiment [1] was 0.5; in experiment [2], 1.0.

As for `Cc1c(C(=O)c2cnn(C)c2O)ccc(S(C)(=O)=O)c1C1=NOCC1` [Inhibitor 1, [3-(4,5-dihydroisoxazol-3-yl)-2-methyl-4-methylsulfonyl-phenyl]-(5-hydroxy-1-methyl-pyrazol-4-yl)methanone], the Injury in experiment [3] (Event B, 1.56 g ai/ha) is 0%; in experiment [3] (Event B, 6.25 g ai/ha) it was 0%; in experiment [3] (Event B, 25 g ai/ha), 0%; in experiment [3] (Event C, 1.56 g ai/ha), 0%; in experiment [3] (Event C, 6.25 g ai/ha), 0%; in experiment [3] (Event C, 25 g ai/ha), 0%. The Injury in experiment [4] (1.56 g ai/ha) was 75%; in experiment [4] (6.25 g ai/ha), 100%; in experiment [4] (25 g ai/ha), 100%; in experiment [5] (Event B, 1.56 g ai/ha) it was 0%; in experiment [5] (Event B, 6.25 g ai/ha), 0%; in experiment [5] (Event B, 25 g ai/ha), 18%. The Injury in experiment [5] (Event C, 1.56 g ai/ha) was 0%; in experiment [5] (Event C, 6.25 g ai/ha), 0%; in experiment [5] (Event C, 25 g ai/ha) it was 10%. In experiment [1], this molecule had a Ki of 11 nM.

Turning to `CC(=O)N(C)c1c(Cl)ccc(C2=C(O)c3ncccc3C(C)(C)S2(=O)=O)c1Cl` [Inhibitor 5, N-[2,6-dichloro-3-(8-hydroxy-5,5-dimethyl-6,6-dioxo-thiopyrano[4,3-b]pyridin-7-yl)phenyl]-N-methyl-acetamide], the “TI (normalized tolerance index)” value is 0.0 in experiment [1] and 1.0 in experiment [2].
